Where two headings read alike, the source gives them in different places.
Legend:
IPOHE = format: in vivo, Ipomoea hederacea
How it was run: (§1)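 Values are visual percent injury or growth inhibition relative to untreated plants, scored ~3 weeks after postemergence spraying, with Colby-expected mixture values computed as A+B−(A×B/100). Treatments were SC-formulated Compound A acid or esters plus insecticidal partners, applied in 1.25% v/v crop oil concentrate at 187 L/ha.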

LEFPA = assay: Postemergence foliar-applied weed control, direct-seeded rice (greenhouse); format: in vivo, Leptochloa panicoides
Source text: (§2) Seeds or nutlets of the desired test plant species were planted in a soil matrix prepared by mixing a loam or sandy loam soil (e.g., 28.6 percent silt, 18.8 percent clay, and 52.6 percent sand, with a pH of about 5.8 and an organic matter content of about 1.8 percent) and calcareous grit in an 80 to 20 ratio. The soil matrix was contained in plastic pots with a volume of 1 quart and a surface area of 83.6 square centimeters (cm^2). When required to ensure good germination and healthy plants, a fungicide treatment and/or other chemical or physical treatment was applied. The plants were grown for 8-22 days in a greenhouse with an approximate 14 hour (h) photoperiod which was maintained at about 29° C. during the day and 26° C. during the night. Nutrients (Peters Excel® 15-5-15 5-Ca 2-Mg and iron chelate) were applied in the irrigation solution as needed and water was added on a regular basis. Supplemental lighting was provided with overhead metal halide 1000-Watt lamps as necessary. The plants were employed for testing when they reached the first through fourth true leaf stage.
(§3) Treatments consisted of the acid or esters of 4-amino-3-chloro-6-(4-chloro-2-fluoro-3-methoxyphenyl)-5-fluoropyridine-2-carboxylic acid (Compound A), each formulated as an SC (suspension concentrate), and various insecticidal components alone and in combination. Forms of compound A were applied on an acid equivalent basis.
(§4) Treatment requirements were calculated based upon the rates being tested, the concentration of active ingredient or acid equivalent in the formulation, and a 12 milliliter (mL) application volume at a rate of 187 liters per hectare (L/ha).
(§5) For treatments comprised of formulated compounds, measured amounts of compounds were placed individually in 25 mL glass vials and diluted in a volume of 1.25% volume per volume (v/v) Agri-Dex® crop oil concentrate to obtain 12× stock solutions. […] Application solutions were prepared by adding an appropriate amount of each stock solution (e.g., 1 mL) and diluted to the appropriate final concentrations with the addition of […] of an aqueous mixture of 1.25% (v/v) crop oil concentrate so that the final spray solutions contained 1.25+/−0.05% (v/v) crop oil concentrate.
(§6) As required, additional water and/or 97:3 v/v acetone/DMSO was added to individual application solutions so that the final acetone and DMSO concentrations of the application solutions being compared were 8.1% and 0.25%, respectively.
(§7) All stock solutions and applications solutions were visually inspected for compound compatibility prior to application. Spray solutions were applied to the plant material with an overhead Mandel track sprayer equipped with 8002E nozzles calibrated to deliver 187 L/ha over an application area of 0.503 square meters (m^2) at a spray height of 18 to 20 inches (46 to 50 cm) above average plant canopy height. Control plants were sprayed in the same manner with the solvent blank.
(§8) The treated plants and control plants were placed in a greenhouse as described above and watered by sub-irrigation to prevent wash-off of the test compounds. After approximately 3 weeks, the condition of the test plants as compared to that of the untreated plants was determined visually and scored on a scale of 0 to 100 percent where 0 corresponds to no injury or growth inhibition and 100 corresponds to complete kill.
(§9) Colby's equation was used to determine the herbicidal effects expected from the mixtures (Colby, S. R. Calculation of the synergistic and antagonistic response of herbicide combinations. Weeds 1967, 15, 20-22.).
(§10) The following equation was used to calculate the expected activity of mixtures containing two active ingredients, A and B: Expected=A+B−(A×B/100)

CYPES = format: in vivo, Cyperus esculentus
How it was run: as §1

LEFFA = assay: Postemergence foliar-applied weed control, direct-seeded rice (greenhouse); format: in vivo, Leptochloa fascicularis
Source text: as §2, §3, §4, §5, §6, §7, §8, §9, §10

SCPJU = assay: as above; format: in vivo, Schoenoplectus juncoides; conditions: 4.38 g ae/ha alone
Source text: as §2, with “Supplemental lighting was provided with overhead metal halide 1000-Watt lamps as necessary. The plants were employed for testing when they reached the first through fourth true leaf stage.” left out
as §4
For treatments comprised of formulated compounds, measured amounts of compounds were placed individually in 25 mL glass vials and diluted in a volume of 1.25% volume per volume (v/v) Agri-Dex® crop oil concentrate to obtain 12× stock solutions. […]

SMILES: COc1c(Cl)ccc(-c2nc(C(=O)O)c(Cl)c(N)c2F)c1F [Compound A Acid, 4-amino-3-chloro-6-(4-chloro-2-fluoro-3-methoxyphenyl)-5-fluoropyridine-2-carboxylic acid]
- Visual Weed Control (%) - 21 DAA IPOHE Obs (IPOHE; 5.3 g ae/ha alone): 10%
- Visual Weed Control (%) - 21 DAA IPOHE Obs (IPOHE; 10.6 g ae/ha alone): 10%
- Visual Weed Control (%) - 21 DAA IPOHE Obs (IPOHE; 21 DAA, 5.3 g ae/ha alone): 10%
- Visual Weed Control (%) - 21 DAA IPOHE Obs (IPOHE; 21 DAA, 10.6 g ae/ha alone): 10%
- Visual Weed Control (%) - 21 DAA IPOHE Obs (IPOHE; 21 DAA, 21.2 g ae/ha alone): 25%
- Visual Weed Control (%) - 21 DAA IPOHE Obs (IPOHE; 21.2 g ae/ha alone): 25%

SMILES: COc1c(Cl)ccc(-c2nc(C(=O)OCc3ccccc3)c(Cl)c(N)c2F)c1F [Compound A Benzyl Ester]
- Visual Weed Control (%) - 20 DAA IPOHE Obs (IPOHE; 4.38 g ae/ha alone): 10%
- Visual Weed Control (%) - 20 DAA IPOHE Obs (IPOHE; 8 g ae/ha alone): 10%
- Visual Weed Control (%) - 21 DAA IPOHE Obs (IPOHE; 8 g ae/ha alone): 10%
- Visual Weed Control (%) - 20 DAA IPOHE Obs (IPOHE; 8.75 g ae/ha alone): 15%
- Visual Weed Control (%) - 20 DAA IPOHE Obs (IPOHE; 16 g ae/ha alone): 40%
- Visual Weed Control (%) - 21 DAA IPOHE Obs (IPOHE; 16 g ae/ha alone): 50%
- Visual Weed Control (%) - 22 DAA IPOHE Obs (IPOHE; 16 g ae/ha alone): 10%
- Visual Weed Control (%) - 19 DAA IPOHE Obs (IPOHE; 8 g ae/ha alone): 20%
- Visual Weed Control (%) - 19 DAA IPOHE Obs (IPOHE; 16 g ae/ha alone): 40%
- Visual Weed Control (%) - 19 DAA IPOHE Obs (IPOHE; 32 g ae/ha alone): 50%
- Visual Weed Control (%) - 21 DAA IPOHE Obs (IPOHE; 21 DAA, 4.38 g ae/ha alone): 10%
- Visual Weed Control (%) - 21 DAA IPOHE Obs (IPOHE; 21 DAA, 8 g ae/ha alone): 10%
- Visual Weed Control (%) - 21 DAA IPOHE Obs (IPOHE; 21 DAA, 8.75 g ae/ha alone): 10%
- Visual Weed Control (%) - 21 DAA IPOHE Obs (IPOHE; 21 DAA, 17.5 g ae/ha alone): 20%
- Visual Weed Control (%) - 22 DAA IPOHE Obs (IPOHE; 22 DAA, 16 g ae/ha alone): 10%
- Visual Weed Control (%) - 22 DAA IPOHE Obs (IPOHE; 22 DAA, 32 g ae/ha alone): 35%
- Visual Weed Control (%) - 20 DAA IPOHE Obs (IPOHE; 32 g ae/ha alone): 50%
- Visual Weed Control (%) - 21 DAA IPOHE Obs (IPOHE; 32 g ae/ha alone): 60%
- Visual Weed Control (%) - 22 DAA IPOHE Obs (IPOHE; 32 g ae/ha alone): 35%
- Visual Weed Control (%) - 22 DAA LEFPA Obs (LEFPA; 8 g ae/ha alone): 5%
- Visual Weed Control (%) - 22 DAA LEFPA Obs (LEFPA; 16 g ae/ha alone): 0%
- Visual Weed Control (%) - 22 DAA LEFPA Obs (LEFPA; 32 g ae/ha alone): 38%
- Visual Weed Control (%) - 20 DAA CYPES Obs (CYPES; 8 g ae/ha alone): 25%
- Visual Weed Control (%) - 22 DAA CYPES Obs (CYPES; 8 g ae/ha alone): 70%
- Visual Weed Control (%) - 20 DAA CYPES Obs (CYPES; 16 g ae/ha alone): 40%
- Visual Weed Control (%) - 22 DAA CYPES Obs (CYPES; 16 g ae/ha alone): 95%
- Visual Weed Control (%) - 22 DAA CYPES Obs (CYPES; 22 DAA, 8 g ae/ha alone): 70%
- Visual Weed Control (%) - 20 DAA CYPES Obs (CYPES; 32 g ae/ha alone): 73%
- Visual Weed Control (%) - 22 DAA LEFFA Obs (LEFFA; 8 g ae/ha alone): 23%
- Visual Weed Control (%) - 22 DAA LEFFA Obs (LEFFA; 16 g ae/ha alone): 30%
- Visual Weed Control (%) - 22 DAA LEFFA Obs (LEFFA; 22 DAA, 8 g ae/ha alone): 23%
- Visual Weed Control (%) - 22 DAA LEFFA Obs (LEFFA; 22 DAA, 16 g ae/ha alone): 30%
- Visual Weed Control (%) - 22 DAA LEFFA Obs (LEFFA; 22 DAA, 32 g ae/ha alone): 45%
- Visual Weed Control (%) - 22 DAA LEFFA Obs (LEFFA; 32 g ae/ha alone): 45%
- Visual Weed Control (%) - 22 DAA SCPJU Obs (SCPJU): 70%

Source: patent publication US9237747B2, “Herbicidal compositions comprising 4-amino-3-chloro-5-fluoro-6-(4-chloro-2-fluoro-3-methoxyphenyl) pyridine-2-carboxylic acid or a derivative thereof and insecticides” (priority 2013, dated 2016)
